Data taken from patent US20210137961A1, “Compositions and Methods for Treating Dry Eye Diseases” (priority 2017, published 2021).
≈ marks a conversion by molar mass, not a printed value.

Key:
[1] = test system: L. monocytogenes and S. aureus; experiment: Antibacterial activity at acidic pH compared with Azi; assay type: cell-based; conditions: including L. monocytogenes and S. aureus
phospholipase = experiment: Phospholipase inhibition in other cell lines; assay type: cell-based
[2] = test system: Viridans group streptococci; experiment: MIC against Viridans group streptococci; assay type: cell-based; conditions: N 51
Streptococcus agalactiae = experiment: MIC against Streptococcus agalactiae; assay type: cell-based; conditions: N 535
MSRA = experiment: MIC against MSRA (30 species); assay type: cell-based
[3] = Corneal permeability, Franz-Cell Diffusion Apparatus; assay type: in vitro ADME, bovine (calf)
Procedure: EXAMPLE. Corneal Permeability. Corneal permeability is determined using conventional protocols. Briefly, corneal permeability is determined on freshly excised bovine (calf) cornea using a Franz-Cell Diffusion Apparatus generally with n=3/group. Freshly excised calf cornea are stored until use in hydrating solution containing glutathione and buffer. The Apparatus includes a donor chamber on the top where a predetermined volume of the formulation is pipetted and a jacketed receptor cell with a sampling side arm. The joint between the donor and receptor cell is upward-convex, mimicking the shape of the cornea. The corneal membrane is placed on the ball joint with the cornea facing the donor chamber. The Apparatus is clamped to secure the cells with the donor and receptor chambers aligned. […] The volume is recorded. […] Test samples are added in rapid succession by depositing 200 μL of the formulation into each donor chamber using a calibrated pipet and the times recorded. […] Flux can be calculated by the formula: J=Q/(A·t), where Q is the quantity (micrograms) of compound traversing the membrane in time t (minutes), and A is the area of exposed membrane in cm^2. […] After completion of the diffusion, corneas are weighed to determine the quantity of bound test compound in the cornea, and the corneal thicknesses of each cornea is measured at the point of diffusion (the center) using Vernier calipers. […]

Streptococcus pyogenes = experiment: MIC against Streptococcus pyogenes; assay type: cell-based
P. acnes = experiment: MIC against P. acnes; assay type: cell-based
[4] = test system: Haemophilus parainfluenzae; experiment: MIC against Haemophilus parainfluenzae; assay type: cell-based; conditions: N 11
S. pneumoniae = experiment: MIC against S. pneumoniae (30 species); assay type: cell-based
Streptococcus mitis = experiment: MIC against Streptococcus mitis; assay type: cell-based; conditions: N 73
CA-MRSA = experiment: MIC against CA-MRSA; assay type: cell-based, Staphylococcus aureus; conditions: N 30
MMP9 = MMP9 activity in PMA-stimulated U937 cells (gelatin zymography); assay type: cell-based, human; conditions: PMA stimulation
Procedure: EXAMPLE. […] Cells. The human monocytic cell line U937 was obtained from the American Type Culture Collection (ATCC, Rockville, Md.). PBMCs from COPD patients were obtained from Brompton hospital and separated by AccuSPIN (Sigma-Aldrich). […] U937 cells were differentiated into adherent macrophage-like morphology by exposure to PMA (50 ng/ml) for 48 h in complete growth medium. Cell viability was assessed microscopically by trypan blue staining. Cell toxicity was determined by MTT assay as needed. This study was approved by the ethics committee of the Royal Brompton Hospitals, and all subjects gave written informed consent. Zymography. MMP9 enzyme activity was measured by gelatin zymography. […] After electrophoresis, gels were incubated and rinsed with Novex® zymogram renaturing buffer (Invitrogen) for 30 min at room temperature. The gels were then rinsed in Novex® zymogram developing buffer (Invitrogen) for 30 min at room temperature prior to overnight incubation in the developing buffer at 37° C. After incubation, the gels were stained using a Colloidal Blue Staining Kit (Invitrogen) to visualize the zymogen bands. Statistical analysis. The results were expressed as the mean±SEM. Comparisons of data in two groups were performed using the Student's t test or the Wilcoxon signed rank test. Multiple comparisons were made by one-way ANOVA with post hoc test (Dunnett's) as appropriate. The difference was considered significant at p<0.05.

[5] = test system: phagocytized L. monocytogenes; assay type: cell-based
Staphylococcus aureus = experiment: MIC against Staphylococcus aureus; assay type: cell-based; conditions: N 201
[6] = test system: Streptococci (Groups C, F, G); experiment: MIC against Streptococci (Groups C, F, G); assay type: cell-based; conditions: N 185
[7] = Streptococcus pyogenes (a), N 407

Which “activity at acidic pH relative to Azi” value [1] does the source give for CC[C@H]1OC(=O)[C@@](C)(F)C(=O)[C@H](C)[C@@H](O[C@@H]2O[C@H](C)C[C@H](N(C)C)[C@H]2O)[C@](C)(OC)C[C@@H](C)C(=O)[C@H](C)[C@H]2N(CCCCn3cc(-c4cccc(N)c4)nn3)C(=O)O[C@]12C [Solithromycin, solithromycin] here?
The value was 100-200 fold.

What about the “reversibility of phospholipase inhibition” value (phospholipase; after dosing is stopped) of the same molecule?
The value was “rapidly reversible”.

And the IC50 (phospholipase; other cell lines, read-out: IC50 for phospholipase inhibition)?
The IC50 was 100 µM.

What about the MIC50 [2] of the same molecule?
The MIC50 was at most 0.008 µg/mL.

What about the MIC90 [2] of the same molecule?
Its MIC90 is 0.06 µg/mL (≈ 0.071 µM).

And the “MIC Range” value [2]?
Its value is ≤0.008-0.12 ^ μg/mL.

What about the MIC50 (Streptococcus agalactiae) of the same molecule?
The MIC50 was at most 0.03 µg/mL.

And the MIC90 (Streptococcus agalactiae)?
Its MIC90 is at most 0.03 µg/mL.

And the “MIC Range” value (Streptococcus agalactiae)?
The value was ≤0.03-0.5 ^ μg/mL.

And the “I = intermediate susceptibility” value (MSRA)?
Its value is 0%.

What about the MIC50 (MSRA) of the same molecule?
The MIC50 was 0.03 µg/mL (≈ 0.0355 µM).

What about the MIC90 (MSRA) of the same molecule?
Its MIC90 is 64 µg/mL (≈ 75.7 µM).

And the “NS = not susceptible” value (MSRA)?
The value was 30%.

And the “S = susceptible” value (MSRA)?
Its value is 70%.

And the “time after administration at which compound is observed in receptor fluid” value ([3]; bovine cornea, Franz cell)?
Its value is at most 1 h.

And the “concentration in receptor fluid” value ([3]; within 1 h of administration)?
Its value is over 1000 ng/mL.

And the MIC90 (Streptococcus pyogenes; Streptococcus Pyogenes (100 strains))?
The MIC90 was 0.03 µg/mL (≈ 0.0355 µM).

What about the MIC50 (Streptococcus pyogenes; [7]) of the same molecule?
Its MIC50 is at most 0.03 µg/mL.

And the MIC90 (Streptococcus pyogenes; [7])?
The MIC90 was at most 0.03 µg/mL.

What about the “MIC Range” value (Streptococcus pyogenes; [7]) of the same molecule?
Its value is ≤0.03-0.5 ^ μg/mL.

What about the MIC50 (Streptococcus pyogenes; Streptococcus pyogenes, N 407) of the same molecule?
Its MIC50 is at most 0.03 µg/mL.

And the MIC90 (Streptococcus pyogenes; Streptococcus pyogenes, N 407)?
The MIC90 was at most 0.03 µg/mL.

What about the “MIC Range” value (Streptococcus pyogenes; Streptococcus pyogenes, N 407) of the same molecule?
Its value is ≤0.03-0.5 ^ μg/mL.

And the “MIC 50%” value (P. acnes; P. acnes)?
Its value is 0.015 µg/mL (≈ 0.0178 µM).

And the “MIC 90%” value (P. acnes; P. acnes (51 species))?
The value was 0.06 µg/mL (≈ 0.071 µM).

And the “MIC Range” value (P. acnes; P. acnes (51 species))?
Its value is at most 0.002 to 0.25 µg/mL.

And the MIC50 [4]?
Its MIC50 is 2 µg/mL (≈ 2.37 µM).

And the MIC90 [4]?
The MIC90 was 2 µg/mL (≈ 2.37 µM).

What about the “MIC Range” value [4] of the same molecule?
Its value is 1 to 2 µg/mL.

And the “I = intermediate susceptibility” value (S. pneumoniae)?
Its value is 0%.

What about the MIC50 (S. pneumoniae) of the same molecule?
The MIC50 was 0.002 µg/mL (≈ 0.00237 µM).

And the MIC90 (S. pneumoniae)?
The MIC90 was 0.12 µg/mL (≈ 0.142 µM).

And the “MIC Range” value (S. pneumoniae)?
The value was ≤0.001-0.25 ^ μg/ml.

What about the “NS = not susceptible” value (S. pneumoniae) of the same molecule?
The value was 0%.

And the “S = susceptible” value (S. pneumoniae)?
Its value is 100%.

And the MIC50 (Streptococcus mitis)?
The MIC50 was at most 0.03 µg/mL.

And the MIC90 (Streptococcus mitis)?
Its MIC90 is 0.06 µg/mL (≈ 0.071 µM).

What about the “MIC Range” value (Streptococcus mitis) of the same molecule?
The value was ≤0.03-0.25^ μg/mL.

And the MIC50 (CA-MRSA)?
The MIC50 was 0.12 µg/mL (≈ 0.142 µM).

What about the MIC90 (CA-MRSA) of the same molecule?
The MIC90 was 0.12 µg/mL (≈ 0.142 µM).

And the “MIC Range” value (CA-MRSA)?
Its value is 0.06 to 0.12 µg/mL.

What about the IC50 (MMP9) of the same molecule?
The IC50 was 14.9 ± 3.1 µM.

What about the “activity against phagocytized bacteria, fold greater” value [5] of the same molecule?
Its value is 50-100 fold.

What about the “potency relative to azithromycin” value ([5]; phagocytized L. monocytogenes) of the same molecule?
The value was 50 fold.

And the MIC50 (Staphylococcus aureus)?
The MIC50 was 0.12 µg/mL (≈ 0.142 µM).

What about the MIC90 (Staphylococcus aureus) of the same molecule?
The MIC90 was over 16 µg/mL.

And the MIC50 [6]?
The MIC50 was at most 0.03 µg/mL.

And the MIC90 [6]?
Its MIC90 is at most 0.03 µg/mL.

What about the “MIC Range” value [6] of the same molecule?
The value was ≤0.03-0.25^ μg/mL.
